From patent EP2468270A1, “(R)-2-(3-fluoro-4-phenylphenyl)propionic acid for use in the treatment of skin diseases” (GALENpharma GmbH, priority 2010, dated 2012)

Columns and labels:
[1] = test system: Alzheimer's disease; conditions: extensive clinical Phase III studies; WO 2005/065069, Imbimbo 2009; cited from earlier work
[2] = test system: BDNF (brain-derived neurotrophic factor); assay: in vitro whole blood culture test system, zymosan activation: BDNF release; format: cell-based; conditions: human whole blood from 3 donors, 0.39-100 µg tarenflurbil/ml
Experimental: In an in vitro whole blood culture test system with human whole blood from 3 donors in each case, pre-incubation was carried out for 2 hours with 0.39, 1.56, 6.25, 25 and 100 µg tarenflurbil/ml whole blood before activation with zymosan (agent for producing sterile inflammations) took place. In total the following 37 parameters were measured which allow a broad overview of the reaction of the leucocytes under inflammatory conditions and thus also of the effects of tarenflurbil in such an environment: • 1. […] Brain-derived neurotrophic factor (BDNF) • 3.

[3] = test system: PGE2 (prostaglandin E2); assay: in vitro whole blood culture test system, zymosan activation: PGE2 formation; format: cell-based; conditions: human whole blood from 3 donors, 2 hours pre-incubation with 0.39, 1.56, 6.25, 25 and 100 µg tarenflurbil/ml, then zymosan
Experimental: (§1) In an in vitro whole blood culture test system with human whole blood from 3 donors in each case, pre-incubation was carried out for 2 hours with 0.39, 1.56, 6.25, 25 and 100 µg tarenflurbil/ml whole blood before activation with zymosan (agent for producing sterile inflammations) took place. In total the following 37 parameters were measured which allow a broad overview of the reaction of the leucocytes under inflammatory conditions and thus also of the effects of tarenflurbil in such an environment: • 1. Amphiregulin • 2. Brain-derived neurotrophic factor (BDNF) • 3. Interleukin-1 alpha (IL-1α) • 4. IL-1β • 5. IL-1 receptor antagonist (IL-1Ra) • 6. IL-2 • 7. IL-3 • 8. IL-4 • 9. IL-5 • 10. IL-6 • 11. IL-7 • 12. IL-8 • 13. IL-10 • 14. IL-12, p40 subunit (IL-12p40) • 15. IL-12p70 • 16. IL-15 • 17. IL-17 • 18. IL-18 • 19. IL-23 • 20. Epiregulin • 21. Eotaxin (Eot.) • 22. Factor VII (F. VII) • 23. Granulocyte-monocytes colony stimulating factor (GM-CSF) • 24. Interferon gamma (IFNγ) • 25. Intercellular adhesion molecule-1 (ICAM-1) • 26. Monocyte chemoattractand protein-1 (MCP-1) • 27. Migration inhibitory protein-1 alpha (MIP-1α) • 28. MIP-1ß • 29. Matrix-metalloproteinase-2 (MMP-2) • 30. MMP-3 • 31. MMP-9 • 32. Oncostatin M (OSM) • 33. Stem-cell factor (SCF) • 34. […] (TGFα) • 35. Tumor necrosis factor alpha (TNFα) • 36. TNFß • 37. Vascular endothelial growth factor (VEGF)

[4] = test system: TGFß (transforming growth factor ß); assay: in vitro whole blood culture test system, zymosan activation: TGFß release; format: cell-based; conditions: human whole blood from 3 donors, 0.39-100 µg tarenflurbil/ml
Experimental: as §1

[5] = test system: UV erythema (sunburn); assay: UV erythema test, twice the minimum erythema dose (Example 2); format: in vivo, human; conditions: four test subjects, skin of the back, topical spray 0.1, 0.25, 1 and 4% (w/w), visual score and spectroscopic colour measurement, 0-48 hours
Experimental: The clinical-pharmacological studies of the following Examples 2 to 4 were carried out on healthy adults as model for non-immunological inflammation. In a preliminary test on the skin of the back involving a group of four test subjects, the "minimum erythema dose" following irradiation with a standardized daylight irradiation apparatus ([…]) was established. In the main test 8 areas of the skin of the back of each subject were irradiated with twice the "minimum erythema dose" and then treated with tarenflurbil spray with 0.1, 0.25, 1 and 4% tarenflurbil (w/w) as well as the associated placebo formulations and the comparison preparations (triamcinolone acetonide 0.2% (w/w); mometasone furoate solution 0.1% (w/w)). […] The effect of the test preparation with the highest tarenflurbil concentration was much more marked than with the comparison solutions triamcinolone acetonide 0.2% (w/w) or mometasone furoate 0.1% (w/w).

[6] = in mice; Leipold et al., Chirality 2004; cited from earlier work
[7] = in humans; Geisslinger et al., J Clin Pharmacol. 1996; cited from earlier work
[8] = test system: isolated rat skin; conditions: Pethö et al. 2001, the authors attributed the effect to S-flurbiprofen impurity; cited from earlier work
[9] = test system: CGRP (Calcitonin Gene-Related Peptide); conditions: isolated rat skin; Averbeck et al. 2003; cited from earlier work
[10] = test system: LT-C4/E4/D4; assay: in vitro whole blood culture test system, zymosan activation: leukotriene synthesis; format: cell-based; conditions: human whole blood, in allergy sufferers (Donor B), 0.39-100 µg tarenflurbil/ml, Figure 1
Experimental: In an in vitro whole blood culture test system with human whole blood from 3 donors in each case, pre-incubation was carried out for 2 hours with 0.39, 1.56, 6.25, 25 and 100 µg tarenflurbil/ml whole blood before activation with zymosan (agent for producing sterile inflammations) took place. […] A group determination of LT-C4/E4/D4 was carried out.

| Compound | efficacy against Alzheimer's disease [1] | BDNF (brain-derived neurotrophic factor) release [2] | PGE2 (prostaglandin E2) formation [3] | TGFß (transforming growth factor ß) release [4] | degree of erythema (UV erythema) [5] | bioinversion into S-flurbiprofen [6] | conversion to S-flurbiprofen [7] | effect on bradykinin-induced nociceptor sensitization to heat [8] | inhibition of the release of CGRP [9] | leukotriene synthesis (LT-C4/E4/D4) [10] |
| --- | --- | --- | --- | --- | --- | --- | --- | --- | --- | --- |
| C[C@@H](C(=O)O)c1ccc(-c2ccccc2)c(F)c1 [tarenflurbil, (R)-2-(3-fluoro-4-phenylphenyl)propionic acid] | ineffective | dose-dependent reduction | dose-dependent reduction | dose-dependent reduction | dose-dependent reduction | considerable bioinversion | not to be converted to S-flurbiprofen | effective | ineffective | dose-dependent reduction |
| C[C@H](C(=O)O)c1ccc(-c2ccccc2)c(F)c1 [S-flurbiprofen] | – | – | – | – | – | – | – | – | effective | – |
